Experiments:
CHP-134 cells = test: CHP134 CellTiter-Glo (CTG) Assay; format: cell-based; conditions: Homo sapiens, CHP-134, 120 h, 5 days, viable cells by CellTiter-Glo
Summary of the method: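 CHP-134 cells seeded at 200 cells/well for 16 h, then given nine 1:3 serial dilutions in quadruplicate at 37° C, 5% CO2. Viable cells measured by CellTiter-Glo luminescence after 5 days; IC50 calculated from curves.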

human recombinant PLK4 = human recombinant PLK4 (Homo sapiens (Human), UniProt O00444); test: PLK4 Biochemical Assay (ADP-Glo); conditions: 0.5 nM PLK4, 8.0 µM ATP, 4.7 µM MBP, 6 hours at RT
Summary of the method: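 Recombinant human PLK4 (added at 1.0 nM) was preincubated 15 min at RT with compound in 50 mM HEPES pH 7.5, 10 mM MgCl2, 1 mM EGTA, 1 mM DTT, 0.01% Brij-35, 0.01% BSA. ADP formed was detected by ADP-Glo luminescence (40 min ATP depletion, 30 min detection). IC50 came from a four-parameter fit.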

[1] = target: human recombinant Aurora B (Homo sapiens (Human), UniProt Q96GD4); test: Aurora B Kinase Biochemical Assay (ADP-Glo); conditions: ratio of Aurora B IC50 to PLK4 IC50 (selectivity)
Summary of the method: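 Recombinant human Aurora B (20 nM in pH 7.5 HEPES buffer with MgCl2, EGTA, DTT, Brij-35, BSA) preincubated with compound 15 min at RT. ADP formed quantified by ADP-Glo luminescence after ATP depletion (40 min) and detection (30 min). IC50 from four-parameter non-linear regression.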

[2] = target: human recombinant Aurora A (Homo sapiens (Human), UniProt O14965); test: Aurora A Kinase Biochemical Assay (ADP-Glo); conditions: ratio of Aurora A IC50 to PLK4 IC50 (selectivity)
Chain of human recombinant Aurora A (O14965 whole entry): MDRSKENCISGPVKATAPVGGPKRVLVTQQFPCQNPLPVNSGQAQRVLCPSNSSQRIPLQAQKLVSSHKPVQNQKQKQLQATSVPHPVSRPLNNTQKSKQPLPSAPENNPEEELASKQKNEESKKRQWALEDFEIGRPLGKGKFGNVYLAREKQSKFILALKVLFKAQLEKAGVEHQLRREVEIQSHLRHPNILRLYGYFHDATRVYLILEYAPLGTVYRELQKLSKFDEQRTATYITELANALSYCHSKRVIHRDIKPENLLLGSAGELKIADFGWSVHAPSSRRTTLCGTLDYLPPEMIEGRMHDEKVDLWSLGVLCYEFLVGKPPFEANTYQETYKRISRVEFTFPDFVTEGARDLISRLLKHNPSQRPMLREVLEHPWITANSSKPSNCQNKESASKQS

Chain of human recombinant Aurora B (Q96GD4 whole entry): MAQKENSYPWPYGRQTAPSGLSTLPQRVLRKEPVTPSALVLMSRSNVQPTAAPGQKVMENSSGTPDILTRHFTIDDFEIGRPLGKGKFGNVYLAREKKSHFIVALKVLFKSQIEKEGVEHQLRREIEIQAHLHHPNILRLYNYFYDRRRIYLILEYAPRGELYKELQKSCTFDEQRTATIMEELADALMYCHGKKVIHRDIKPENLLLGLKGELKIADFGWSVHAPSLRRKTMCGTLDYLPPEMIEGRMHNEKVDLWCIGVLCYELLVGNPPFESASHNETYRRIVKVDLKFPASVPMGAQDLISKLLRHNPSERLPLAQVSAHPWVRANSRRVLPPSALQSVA
Chain of human recombinant PLK4 (O00444 whole entry): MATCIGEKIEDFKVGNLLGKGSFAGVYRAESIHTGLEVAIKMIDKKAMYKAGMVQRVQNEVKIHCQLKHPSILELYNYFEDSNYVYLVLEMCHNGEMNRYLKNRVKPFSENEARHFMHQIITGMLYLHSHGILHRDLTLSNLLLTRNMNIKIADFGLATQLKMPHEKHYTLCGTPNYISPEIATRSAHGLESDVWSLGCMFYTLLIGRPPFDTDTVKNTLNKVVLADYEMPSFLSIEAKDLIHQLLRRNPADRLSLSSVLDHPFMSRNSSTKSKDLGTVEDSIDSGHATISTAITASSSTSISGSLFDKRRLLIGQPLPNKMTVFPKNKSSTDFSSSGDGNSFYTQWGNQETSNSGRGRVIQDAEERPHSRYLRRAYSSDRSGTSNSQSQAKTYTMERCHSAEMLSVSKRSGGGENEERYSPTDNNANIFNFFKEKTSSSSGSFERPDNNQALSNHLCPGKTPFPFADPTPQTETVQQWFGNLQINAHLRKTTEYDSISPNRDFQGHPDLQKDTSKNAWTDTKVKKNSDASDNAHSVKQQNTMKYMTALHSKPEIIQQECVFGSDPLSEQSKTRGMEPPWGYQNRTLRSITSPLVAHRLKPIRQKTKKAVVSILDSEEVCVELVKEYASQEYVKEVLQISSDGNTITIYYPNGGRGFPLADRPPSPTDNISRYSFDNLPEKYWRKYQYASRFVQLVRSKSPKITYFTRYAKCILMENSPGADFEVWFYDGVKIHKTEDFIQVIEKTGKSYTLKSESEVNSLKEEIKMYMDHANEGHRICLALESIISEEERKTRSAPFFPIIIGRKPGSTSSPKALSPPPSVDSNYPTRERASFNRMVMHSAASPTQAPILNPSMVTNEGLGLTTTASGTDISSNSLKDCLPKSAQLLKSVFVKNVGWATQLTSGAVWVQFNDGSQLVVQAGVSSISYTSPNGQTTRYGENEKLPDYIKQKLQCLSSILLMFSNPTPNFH

SMILES	IC50 (CHP-134 cells) [nM]	IC50 (human recombinant PLK4) [nM]	[Aurora B IC50 (nM)]/[PLK4 IC50 (nM)] [1]	[Aurora A IC50 (nM)]/[PLK4 IC50 (nM)] [2]
CCS(=O)(=O)c1ccc(OC)c(Nc2n[nH]c3cc([C@@H]4C[C@@]45C(=O)Nc4ccc(OC)cc45)ccc23)c1 [Example 175, (1R,2S)-2-{3-[5-(ethanesulfonyl)-2-methoxyanilino]-1H-indazol-6-yl}-5′-methoxyspiro[cyclopropane-1,3′-indol]-2′(1′H)-one]	2210	3.57	8627.0664	14009.5265
COc1ccc2c(c1)[C@]1(C[C@H]1c1ccc3c(Nc4cc(C(=O)N(C)C)ccc4OC)n[nH]c3c1)C(=O)N2 [Example 176, 4-methoxy-3-({6-[(1R,2S)-5′-methoxy-2′-oxo-1′,2′-dihydrospiro[cyclopropane-1,3′-indol]-2-yl]-1H-indazol-3-yl}amino)-N,N-dimethylbenzamide]	1550	2.84	1300.3869	1725.2902
CNC(=O)c1ccc(OC)c(Nc2n[nH]c3cc([C@@H]4C[C@@]45C(=O)Nc4ccc(OC)cc45)ccc23)c1 [Example 177, 4-methoxy-3-({6-[(1R,2S)-5′-methoxy-2′-oxo-1′,2′-dihydrospiro[cyclopropane-1,3′-indol]-2-yl]-1H-indazol-3-yl}amino)-N-methylbenzamide]	3680	4.25	11750.8813	11750.8813
COc1ccc2c(c1)[C@]1(C[C@H]1c1ccc3c(Nc4cc(S(=O)(=O)C(C)C)ccc4OC)n[nH]c3c1)C(=O)N2 [Example 178, (1R,2S)-5′-methoxy-2-{3-[2-methoxy-5-(propane-2-sulfonyl)anilino]-1H-indazol-6-yl}spiro[cyclopropane-1,3′-indol]-2′(1′H)-one]	631	3.29	15179.1135	15179.1135
COc1ccc2c(c1)[C@]1(C[C@H]1c1ccc3c(Nc4cc(S(=O)(=O)N(C)C)ccc4OC)n[nH]c3c1)C(=O)N2 [Example 179, 4-methoxy-3-({6-[(1R,2S)-5′-methoxy-2′-oxo-1′,2′-dihydrospiro[cyclopropane-1,3′-indol]-2-yl]-1H-indazol-3-yl}amino)-N,N-dimethylbenzene-1-sulfonamide]	948	3.81	5384.4135	13119.9160
COc1ccc2c(c1)[C@]1(C[C@H]1c1ccc3c(Nc4cc(C(=O)N5CCOCC5)ccc4OC)n[nH]c3c1)C(=O)N2 [Example 180, (1R,2S)-5′-methoxy-2-{3-[2-methoxy-5-(morpholine-4-carbonyl)anilino]-1H-indazol-6-yl}spiro[cyclopropane-1,3′-indol]-2′(1′H)-one]	741	2.85	1996.8465	5455.5011
COc1ccc2c(c1)[C@]1(C[C@H]1c1ccc3c(Nc4ccc(C(=O)N5CCOCC5)nc4OC)n[nH]c3c1)C(=O)N2 [Example 183, (1R,2S)-5′-methoxy-2-(3-{[2-methoxy-6-(morpholine-4-carbonyl)pyridin-3-yl]amino}-1H-indazol-6-yl)spiro(cyclopropane-1,3′-indol]-2′(1′H)-one]	125	1.25	322.5703	534.2169
COc1ccc2c(c1)[C@]1(C[C@H]1c1ccc3c(Nc4ccc(C(=O)N5CC(F)(F)C5)nc4OC)n[nH]c3c1)C(=O)N2 [Example 184, (1R,2S)-2-(3-{[6-(3,3-difluoroazetidine-1-carbonyl)-2-methoxypyridin-3-yl]amino}-1H-indazol-6-yl)-5′-methoxyspiro[cyclopropane-1,3′-indol]-2′(1′H)-one]	882	7	7144.8985	7144.8985
COc1ccc2c(c1)[C@]1(C[C@H]1c1ccc3c(Nc4ccc(C(=O)N5CCC(F)(F)CC5)nc4OC)n[nH]c3c1)C(=O)N2 [Example 185, (1R,2S)-2-(3-{[6-(4,4-difluoropiperidine-1-carbonyl)-2-methoxypyridin-3-yl]amino}-1H-indazol-6-yl)-5′-methoxyspiro[cyclopropane-1,3′-indol]-2′(1′H)-one]	134	1.96	180.1636	3240.7975
COc1ccc2c(c1)[C@]1(C[C@H]1c1cc(F)c3c(Nc4nc(SC)ncc4OC)n[nH]c3c1)C(=O)N2 [Example 186, (1R,2S)-2-(4-fluoro-3-{[5-methoxy-2-(methylsulfanyl)pyrimidin-4-yl]amino}-1H-indazol-6-yl)-5′-methoxyspiro[cyclopropane-1,3′-indol]-2′(1′H)-one]	537	1.78	232.5464	641.9337
COc1ccc2c(c1)[C@]1(C[C@H]1c1ccc3c(Nc4nc(OC)ncc4C)n[nH]c3c1)C(=O)N2 [Example 187, (1R,2S)-5′-methoxy-2-{3-[(2-methoxy-5-methylpyrimidin-4-yl)amino]-1H-indazol-6-yl}spiro[cyclopropane-1,3′-indol]-2′(1′H)-one]	563	6.12	112.2793	109.5814
COc1ccc2c(c1)[C@]1(C[C@H]1c1ccc3c(Nc4ccc(C(=O)N5CC6(COC6)C5)nc4OC)n[nH]c3c1)C(=O)N2 [Example 188, (1R,2S)-5′-methoxy-2-(3-{[2-methoxy-6-(2-oxa-6-azaspiro[3.3]heptane-6-carbonyl)pyridin-3-yl]amino}-1H-indazol-6-yl)spiro[cyclopropane-1,3′-indol]-2′(1′H)-one]	760	6.27	191.7065	7974.4817
COc1ccc2c(c1)[C@]1(C[C@H]1c1ccc3c(Nc4nc(N5CCC(F)(F)CC5)ncc4OC)n[nH]c3c1)C(=O)N2 [Example 189, (1R,2S)-2-(3-{[2-(4,4-difluornpiperidin-1-yl)-5-methoiypyrimidin-4-yl]amino}-1H-indazol-6-yl)-5′-methoxyspiro[cyclopropane-1,3′-indol]-2′(1′H)-one]	112	1.04	514.5455	383.7321
COc1ccc2c(c1)[C@]1(C[C@H]1c1ccc3c(Nc4nc(N5CCS(=O)(=O)CC5)ncc4OC)n[nH]c3c1)C(=O)N2 [Example 190, 4-[5-methoxy-4-({6-[(1R,2S)-5′-methoxy-2′-oxo-1′,2′-dihydrospiro[cyclopropane-1,3′-indol]-2-yl]-1H-indazol-3-yl}amino)pyrimidin-2-yl]-1λ6-thiomorpholine-1,1-dione]	5120	2.66	279.1432	129.5378
CNC(=O)c1ccc(Nc2n[nH]c3cc([C@@H]4C[C@@]45C(=O)Nc4ccc(OC)cc45)ccc23)c(OC)n1 [Example 191, 6-methoxy-5-({6-[(1R,2S)-5′-methoxy-2′-oxo-1′,2′-dihydrospiro[cyclopropane-1,3′-indol]-2-yl]-1H-indazol-3-yl}amino)-N-methylpyridine-2-carboxamide]	494	2.27	84.9956	2416.5931
COc1ccc2c(c1)[C@]1(C[C@H]1c1ccc3c(Nc4nc(N5CC6(COC6)C5)ncc4OC)n[nH]c3c1)C(=O)N2 [Example 192, (1R,2S)-5′-methoxy-2-(3-{[5-methoxy-2-(2-oxa-6-azaspiro[3.3]heptan-6-yl)pyrimidin-4-yl]amino}-1H-indazol-6-yl)spiro[cyclopropane-1,3′-indol]-2′(1′H)-one]	1180	1.64	678.4625	2835.2654
COc1ccc2c(c1)[C@]1(C[C@H]1c1ccc3c(Nc4ncc(S(C)(=O)=O)cc4OC)n[nH]c3c1)C(=O)N2 [Example 193, (1R,2S)-2-(3-{[5-(methanesulfonyl)-3-methoxypyridin-2-yl]amino}-1H-indazol-6-yl)-5′-methoxyspiro[cyclopropane-1,3′-indol]-2′(1′H)-one]	390	1.13	138.8889	1463.8448
COc1ccc2c(c1)[C@]1(C[C@H]1c1ccc3c(Nc4ccc(C(=O)N(C)C(C)C)nc4OC)n[nH]c3c1)C(=O)N2 [Example 194, 6-methoxy-5-({6-[(1R,2S)-5′-methoxy-2′-oxo-1’,2′-dihydrospiro[cyclopropane-1,3′-indol]-2-yl]-1H-indazol-3-yl}amino)-N-methyl-N-(propan-2-yl)pyridine-2-carboxamide]	126	0.965	103.7306	805.6995
